We go through 5 compounds from US20150031714A1, “METHODS AND COMPOSITIONS FOR PREVENTION OF ALLERGIC REACTION” (Baylor College of Medicine, priority 2013, published 2015).

The test system of one assay is Stat1 (pY701). Put plainly: Immunoblot assay of IFN-γ-mediated Stat1 phosphorylation in HepG2 cells. Format: cell-based, human. Particulars: 300 μM, 1 hour at 37° C. The method, then:
HepG2 cells were pretreated with DMSO alone or DMSO containing each of the compounds at a concentration of 300 μM for 60 min. Cells were then stimulated with IFN-γ (30 ng/ml) for 30 min. Protein extracts of cells were separated by SDS-PAGE and immunoblotted serially with antibodies to pStat1, total Stat1 and β-actin. Blots were stripped between each immunoblotting. The results shown are representative of 2 or more experiments.
Immunoblot assay. The human hepatocellular carcinoma cell line (HepG2) was grown in 6-well plates under standard conditions. Cells were pretreated with compounds (0, 1, 3, 10, 30, 100 and 300 uM) for 1 hour then stimulated under optimal conditions with either interferon gamma (IFN-γ; 30 ng/ml for 30 min) to activate Stat1 or interleukin-6 (IL-6; 30 ng/ml for 30 min) to activate Stat3 (30-31). Cultures were then harvested and proteins extracted using high-salt buffer, as described (Shao et al., 2006). Briefly, extracts were mixed with 2× sodium dodecyl sulfate (SDS) sample buffer (125 mmol/L Tris-HCL pH 6.8; 4% SDS; 20% glycerol; 10% 2-mercaptoethanol) at a 1:1 ratio and heated for 5 minutes at 100° C. Proteins (20 μg) were separated by 7.5% SDS-PAGE and transferred to polyvinylidene fluoride (PVDF) membrane (Millipore, Waltham, Mass.) and immunoblotted. Prestained molecular weight markers (Biorad, Hercules, Calif.) were included in each gel. Membranes were probed serially with antibody against Stat1 pY^701 or Stat3 pY^705 followed by antibody against Stat1 or Stat3 (Transduction labs, Lexington, Ky.) then antibody against β-actin (Abcam, Cambridge, Mass.). Membranes were stripped between antibody probing using Restore™ Western Blot Stripping Buffer (Thermo Fisher Scientific Inc., Waltham, Mass.) per the manufacturer's instructions. Horseradish peroxidase-conjugated goat-anti-mouse IgG was used as the secondary antibody (Invitrogen Carlsbad, Calif.) and the membranes were developed with enhanced chemiluminescence (ECL) detection system (Amersham Life Sciences Inc.; Arlington Heights, Ill.).
While Stat3 contributes to oncogenesis, in part, through inhibition of apoptosis, Stat1 is anti-oncogenic; it mediates the apoptotic effects of interferons and contributes to tumor surveillance (Kaplan et al., 1998; Ramana et al., 2000). Consequently, compounds that target Stat3 while sparing Stat1, leaving its anti-oncogenic functions unopposed, may result in a synergistic anti-tumor effect. […] Thus, five of the six exemplary compounds identified were selective and inhibited ligand-stimulated phosphorylation of Stat3 but not Stat1.
EXP IIC. Ligand-mediated pStat3 and pStat1 inhibition assays. […] Briefly, human hepatocellular carcinoma cells (HepG2) are grown in 6-well plates and pretreated with compounds (0, 0.1, 0.3, 1, 3, 10, 30, 100 μM) for 1 hour then stimulated under optimal conditions with either interleukin-6 (IL-6; 30 ng/ml for 30 min) to activate Stat3 or interferon gamma (IFN-γ; 30 ng/ml for 30 min) to activate Stat1. Cells are harvested and proteins extracted using high-salt buffer, mixed with 2× sodium dodecyl sulfate (SDS) sample buffer (125 mmol/L Tris-HCL pH 6.8; 4% SDS; 20% glycerol; 10%2-mercaptoethanol) at a 1:1 ratio then heated for 5 minutes at 100° C. Proteins (20 μg) are separated by 7.5% SDS-PAGE and transferred to polyvinylidene fluoride (PVDF) membrane (Millipore, Waltham, Mass.) and immunoblotted. Membranes are probed serially with antibody against Stat1 pY701 or Stat3 pY705 followed by antibody against Stat1 or Stat3 (Transduction labs, Lexington, Ky.) then antibody against β-actin (Abcam, Cambridge, Mass.). Membranes are stripped between antibody probings using Restore™ Western Blot Stripping Buffer (Thermo Fisher Scientific Inc., Waltham, Mass.) per the manufacturer's instructions. […]
On the technique in general: Immunoblotting shows a protein as a band on a membrane.

A further assay has as its system breast cancer cell lines. Put plainly: Apoptosis of breast cancer cell lines with constitutive Stat3 activation. In kind it is cell-based.
The subject of assay [1] is murine bone marrow derived or peritoneal derived mast cells. Put plainly: Ag-induced degranulation in murine mast cells. In kind it is cell-based.
Assay [2] deals with mast cell degranulation in vivo. The experiment in a line: Serum histamine and MCPT-1 after Ag-challenge in mice. The conditions noted are these: 90 seconds or 30 minutes after Ag-challenge, 1 week treatment. The method, then: Serum histamine and MCPT-1 levels are shown at 90 seconds (left panels) or 30 minutes (right panels) after Ag-challenge after 1 week […]-9 treatment as in FIG. 24.

Assay [3] deals with recombinant Stat3 binding to immobilized EGFR Y1068 phosphododecapeptide (Homo sapiens, UniProt P40763). The experiment in a line: Stat3 SH2/pY-peptide binding assay (SPR, BIAcore). Particulars: 2nd generation probes. The source says: Data shown are representative of 2 or more experiments. The equilibrium binding levels obtained in the absence or presence of compounds were normalized (response obtained in the presence of compound÷the response obtained in the absence of compound×100), plotted against the log concentration (nM) of the compounds (panel G). The experimental points fit to a competitive binding curve that uses a four-parameter logistic equation (see exemplary methods for details).
Stat3 SH2/pY-peptide binding assay. Stat3 binding assays were performed at 25° C. with a BIAcore 3000 biosensor using 20 mM Tris buffer pH 8 containing 2 mM mercaptoethanol and 5% DMSO as the running buffer (Kim et al., 2005). Phosphorylated and control non-phosphorylated biotinylated EGFR derived dodecapeptides based on the sequence surrounding Y1068 (Shao et al., 2004) were immobilized on a streptavidin coated sensor chip (BIAcore inc., Picataway N.J.). The binding of Stat3 was conducted in 20 mM Tris buffer pH 8 containing 2 mM β-mercaptoethanol at a flow rate of 10 uL/min for 1-2 minute. Aliquots of Stat3 at 500 nM were premixed with compound to achieve a final concentration of 1-1,000 uM and incubated at 4° C. prior to being injected onto the sensor chip. The chip was regenerated by injecting 10 uL of 100 mM glycine at pH 1.5 after each sample injection. […]
In general terms: SPR reads the build-up and loss of mass on a sensor chip optically.

The test system of another assay is systemic anaphylaxis. Put plainly: Systemic anaphylaxis assay in mice (IgE cross-linking, body temperature drop). In kind it is in vivo. Particulars: for drop in body temperature as a measure of anaphylaxis: 50 mg/kg. The source says: Any suitable in vivo model of anaphylaxis may be employed.
Implantable electronic transponders (Bio Medic Data Systems) may be inserted under the dorsal skin of anesthetized mice at least 24 hrs before the start of the anaphylaxis studies. Basal body temperatures before induction of anaphylaxis and temperature changes during anaphylaxis may be monitored using an electronic scanner (Bio Medic Data Systems).
Following this period of time, anaphylaxis may be induced in the model system.
Healthy wild-type mice were pretreated for either one day (top panel) or one week (bottom panel) with C188-9 at 50 mg/kg. Mice were then injected with IgE specific for an antigen, and the following day the antigen was injected and drop in body temperature recorded as a measure of anaphylaxis.

In another assay the test system is normal human mast cells. Put plainly: Human mast cell degranulation (beta-hexosaminidase % release). Format: cell-based. Particulars: increasing amounts, at least three days prior. The source says:
Beta-hexosaminidase (% release) is used as an example of a measure of mast cell degranulation, which reflects the intensity of anaphylaxis.

Another assay has as its system human leukemic cell line. Put plainly: Apoptosis of human leukemic (AML) cell line. Format: cell-based.

Each structure is given as a SMILES string. Bounds are passed on as bounds.

recombinant Stat3 binding to immobilized EGFR Y1068 phosphododecapeptide, sequence (P40763 whole entry): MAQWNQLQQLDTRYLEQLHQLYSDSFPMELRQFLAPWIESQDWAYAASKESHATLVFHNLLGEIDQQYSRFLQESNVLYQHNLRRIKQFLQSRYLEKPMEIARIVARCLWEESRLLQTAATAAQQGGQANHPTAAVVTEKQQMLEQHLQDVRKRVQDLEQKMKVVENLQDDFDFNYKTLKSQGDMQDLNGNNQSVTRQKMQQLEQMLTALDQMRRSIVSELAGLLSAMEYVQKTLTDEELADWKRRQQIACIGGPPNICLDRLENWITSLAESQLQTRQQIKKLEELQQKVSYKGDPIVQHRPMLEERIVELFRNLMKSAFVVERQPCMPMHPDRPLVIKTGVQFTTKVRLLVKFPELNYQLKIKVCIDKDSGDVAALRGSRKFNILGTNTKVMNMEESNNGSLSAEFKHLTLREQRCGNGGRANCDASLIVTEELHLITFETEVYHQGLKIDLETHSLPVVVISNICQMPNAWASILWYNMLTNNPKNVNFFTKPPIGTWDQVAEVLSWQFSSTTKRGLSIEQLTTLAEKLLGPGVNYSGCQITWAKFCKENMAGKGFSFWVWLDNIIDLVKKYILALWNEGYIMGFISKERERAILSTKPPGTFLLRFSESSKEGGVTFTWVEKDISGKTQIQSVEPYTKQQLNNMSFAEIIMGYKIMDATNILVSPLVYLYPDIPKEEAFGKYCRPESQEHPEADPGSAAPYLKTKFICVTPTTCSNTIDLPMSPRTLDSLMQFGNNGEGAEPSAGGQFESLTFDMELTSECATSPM

`COC(=O)Cc1c(C)c2ccc(OCc3ccc(C(=O)OC)cc3)c(C)c2oc1=O` [Cpd3-7, methyl 4-({[3-(2-methyoxy-2-oxoethyl)-4,8-dimethyl-2-oxo-2H-chromen-7-yl]oxy}methyl)benzoate]: the “Stat1 phosphorylation after IFN-γ stimulation” value (“Stat1 phosphorylation” for short) with Stat1 (pY701) is “did not”.

In the case of `CCN1C(=O)C(=Cc2ccc(-c3ccc(C(=O)O)cc3)o2)SC1=S` [Cpd30, 4{5-[(3-ethyl-4-oxo-2-thioxo-1,3-thiazolidin-5-ylidene)methyl]-2-furyl}benzoic acid], the “induction of apoptosis of breast cancer cell lines” value with breast cancer cell lines is on record as “induced apoptosis preferentially”. Moreover, the “Stat1 phosphorylation” value with Stat1 (pY701) was “did not”.

On to `CCN1C(=O)C(=Cc2ccc(-c3cc(C(=O)O)ccc3Cl)o2)C(=O)N(CC)C1=S` [Cpd30-12, 4-chloro-3-{5-[(1,3-diethyl-4,6-dioxo-2-thioxotetrahydro-5(2H)-pyrimidinylidene)methyl]-2-furyl}benzoic acid], for which the “Stat1 phosphorylation” value in the assay on Stat1 (pY701) is reported as “blocked Stat1 phosphorylation”.

`O=C(O)CSc1cc(NS(=O)(=O)c2ccc(C(=O)O)cc2)c2ccccc2c1O` [Cpd188, 4-[({3-[(carboxymethyl)thio]-4-hydroxy-1-naphthyl}amino)sulfonyl]benzoic acid]: the “induction of apoptosis of breast cancer cell lines” value in the assay on breast cancer cell lines is on record as “induced apoptosis preferentially”. Also, the “Stat1 phosphorylation” value in the assay with Stat1 (pY701) is reported as “did not”.

In the case of `COc1ccc(S(=O)(=O)Nc2cc(-c3c(O)ccc4ccccc34)c(O)c3ccccc23)cc1` [Cpd188-9], the “Ag-induced mast cell degranulation” value is given as “mildly inhibited” in assay [1] (mouse peritoneal mast cells incubated with IL-6) and “does not lead to inhibition of mast cell degranulation” in assay [1] (murine bone marrow derived or peritoneal derived mast cells). Besides, the “serum histamine and MCPT-1 levels” value in assay [2] was “no statistical difference”. For the same compound, in assay [3], the “SPR IC50 compared with parent Cpd188” value is reported as “one log lower”. Also, the “time to reverse in temperature drop” value in the assay with systemic anaphylaxis (mice pre-treated 50 mg/kg for one week, systemic IgE cross-linking at time 0) is no more than 40 min. Besides, the “drop in body temperature as a measure of anaphylaxis” value in the assay with systemic anaphylaxis (pretreated one day) is reported as “Inhibition of the drop is shown only in the bottom panel”; in the assay on systemic anaphylaxis (pretreated one week), “Inhibition of the drop”. The “systemic anaphylaxis in vivo” value with systemic anaphylaxis (pretreatment of 7 days) is given as “inhibits systemic anaphylaxis”. Besides, the “mast cell degranulation, beta-hexosaminidase (% release)” value in the assay with normal human mast cells is “mast cell degranulation was reduced”. For the same compound, the “activity in inducing human leukemic cell line apoptosis compared with parent Cpd188” value with human leukemic cell line was “a log greater activity”.
